Results reported in PubChem BioAssay AID463199 (Broad Institute, 2010).
The source made the active and inactive calls.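 The calls were made as follows: active = AC50, the dose giving half-maximal effect, exceeds a fixed cutoff for a compound that rescues yeast growth under heat; inactive = the rest, inconclusive results apart.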

Tested on: S. cerevisiae Burl-1 ts mutant growth, BacTiter-Glo, 38.5C 24 h
Assay: growth induction of Burl-1 ts yeast mutant, dose response, counter-screen for SUMOylation pathway inhibitor project, whole organism, S. cerevisiae, luminescence (AID 463199)

| SMILES | AC50 |
| --- | --- |
| CCOc1ccc(Cl)cc1CNc1nnnn1CC | > 42 µM (inactive) |
| O=C(CCSc1nnnn1-c1ccccc1)N1CCOCC1 | > 42 µM (inactive) |
| Cc1c(C(=O)NC(C)c2ccc(-n3ccnc3)cc2)cccc1[N+](=O)[O-] (stereo not drawn) | > 42 µM (inactive) |
| CCC12CN3CCN(CC(C3)/C1=N/NC(=O)c1ccncc1)C2 | > 42 µM (inactive) |
| CCN1CCN(CC(=O)Nc2cccc(C)c2C)C(=O)C1=O | > 42 µM (inactive) |
| Fc1ccccc1-n1cc(-c2ccccc2)[nH]c1=S | > 42 µM (inactive) |
| CCn1ncc(Br)c1C(=O)Nc1ccc(OC(F)(F)F)cc1 | > 42 µM (inactive) |
| Cc1cnc(=O)[nH]c1SCC(=O)c1ccc(F)cc1 | > 42 µM (inactive) |
| CN(C)C(=O)c1cc(C(=O)c2ccc(C(F)(F)F)cc2F)c[nH]1 | > 42 µM (inactive) |
| Cc1nn(C)c(Cl)c1CN1CCN(CCC(C)C)C(CCO)C1 (stereo not drawn) | > 42 µM (inactive) |
| C(=N\N1CCN(C2c3ccccc3-c3ccccc32)CC1)/c1ccncc1 | > 42 µM (inactive) |
| Cc1ccc(C(C(=O)NC2CCCCC2)N(CCC(C)C)C(=O)CNC(=O)c2ccco2)o1 (stereo not drawn) | > 42 µM (inactive) |
| COc1ccc2[nH]cc(CCNS(=O)(=O)c3ccc(C)cc3)c2c1 | > 42 µM (inactive) |
| O=C(O)C1C2CCC(O2)C1C(=O)NCCC1=CCCCC1 (stereo not drawn) | 13.6 µM |
| CCOc1c(Cl)cc(CNCC(O)c2ccccc2)cc1OC (stereo not drawn) | > 42 µM (inactive) |
| CCNC(=S)Nc1ccc(C)c(S(=O)(=O)Nc2ccccc2OC)c1 | > 42 µM (inactive) |
| Cc1nc(-c2ccc(Cl)cc2)sc1C1(C)CC(c2c(Cl)cccc2Cl)=NO1 (stereo not drawn) | > 42 µM (inactive) |
| COc1ccc(-n2c(SCC(=O)NCC3CCCO3)nc3c(c2=O)SCC3)cc1OC (stereo not drawn) | > 42 µM (inactive) |
| CC1CCCCC1N=CC1=C(O)CC(C)(C)CC1=O (stereo not drawn) | > 42 µM (inactive) |
| CN1C(C(=O)Nc2ccccn2)=C(O)c2sccc2S1(=O)=O | > 42 µM (inactive) |
| CC1(C)CC(=O)C=C(OC(=O)c2ccc(Cl)cc2)C1 | > 42 µM (inactive) |
| CN(C)c1ccc(/C=N\Nc2ccccn2)cc1 | > 42 µM (inactive) |
| COc1cc(O)oc1C=Nc1ccc(C(=O)O)cc1 | > 42 µM (inactive) |
| CCN(C(=O)Nc1ccccc1OC)c1c(N)n(Cc2ccccc2)c(=O)[nH]c1=O | > 42 µM (inactive) |
| CCOc1ccccc1N(C(=O)c1snc(C(N)=O)c1N)C(CC)C(=O)NC1CCCC1 (stereo not drawn) | > 42 µM (inactive) |

| SMILES | AC50 |
| --- | --- |
| Cc1cc(CNC(=O)C2CCC(=O)N(Cc3ccccc3F)C2)on1 (stereo not drawn) | > 42 µM (inactive) |
| COc1ccccc1CSc1ncc(-c2ccc([N+](=O)[O-])cc2)[nH]1 | > 42 µM (inactive) |
| CCOc1ccc2[nH]c(=O)c(CN(Cc3ccco3)C(CC)c3nnnn3Cc3ccccc3)cc2c1 (stereo not drawn) | > 42 µM (inactive) |
| O=C(Nc1nc(-c2ccccn2)cs1)c1ccc2c(c1)OCCO2 | > 42 µM (inactive) |
| O=C(c1ccccc1F)N1CCCc2ccccc21 | > 42 µM (inactive) |
| O=C(O)CN(c1ccccn1)S(=O)(=O)c1ccc(Cl)cc1 | > 42 µM (inactive) |
| CC(=O)N1N=C(N)SC12CCCC2 | > 42 µM (inactive) |
| Cc1ccc(C(=O)/C=C/Nc2ccccc2C(N)=O)cc1 | > 42 µM (inactive) |
| Cn1c(-c2sc3cc(C(F)(F)F)cnc3c2-c2cccs2)n[nH]c1=S | > 42 µM (inactive) |
| CCn1c(SCC(=O)Nc2nc(-c3ccccc3)cs2)nnc1-c1ccccc1 | > 42 µM (inactive) |
| O=c1[nH]c(CN2CCN(CCO)CC2)nc2ccccc12 | > 42 µM (inactive) |
| COc1cccc(NC(=O)CN2CCN(c3ccccc3F)CC2)c1 | > 42 µM (inactive) |
| O=C(COC(=O)Cc1ccsc1)NC1CCCCCC1 | > 42 µM (inactive) |
| CCc1nc2ccc(C(=O)N3CCN(CC)CC3)cc2nc1CC | > 42 µM (inactive) |
| Cc1cc(C)c(S(=O)(=O)c2cccc(C)c2C)c(=O)[nH]1 | > 42 µM (inactive) |
| CC(=O)c1cc(C)ccc1OC(=O)c1ccco1 | > 42 µM (inactive) |
| O=C(O)c1cc(S(=O)(=O)Nc2ccc(OCc3ccccc3)cc2)ccc1Br | > 42 µM (inactive) |
| COc1ccc2c(c1)OC[C@H]1[C@H]2N2C(=O)c3cc(F)ccc3NC(=O)[C@@]2(C)[C@H]1c1ccccc1 | > 42 µM (inactive) |
| CC(Oc1ccccc1)C(=O)Nc1ccccc1O (stereo not drawn) | > 42 µM (inactive) |
| CCNC(=S)NNC(=O)c1ccc(=O)n(Cc2ccccc2)c1 | > 42 µM (inactive) |
| CCN(CC)C(=O)CSC(Nc1cccc(F)c1)=C(C#N)C#N | > 42 µM (inactive) |
| NS(=O)(=O)c1ccc(CCNC(=O)c2ccc([N+](=O)[O-])s2)cc1 | > 42 µM (inactive) |
| O=C(Nc1cc(F)ccc1F)C1CCCO1 (stereo not drawn) | > 42 µM (inactive) |
| O=C(CN1c2ccccc2Sc2ccccc21)N/N=C/c1ccc(Cl)cc1Cl | > 21 µM (inactive) |
| Cc1ccc(-c2noc(C3CCCN(S(=O)(=O)c4ccc5ccccc5c4)C3)n2)o1 (stereo not drawn) | > 42 µM (inactive) |

| SMILES | AC50 |
| --- | --- |
| O=c1c2c3c(sc2n2cnnc2n1-c1ccccc1)N(Cc1ccccc1)CCC3 | > 42 µM (inactive) |
| CN1CCN(C(=O)CCN2C(=O)/C(=C/c3ccccc3Cl)SC2=S)CC1 | > 42 µM (inactive) |
| Cc1cc(OCC(=O)NCC2CCC(C(=O)O)CC2)c2c(C)c(C)c(=O)oc2c1 (stereo not drawn) | > 42 µM (inactive) |
| COc1ccc(-c2nnc(SCC(C)C)o2)cc1 | > 42 µM (inactive) |
| O=C(NC1CCCCC1)c1ccc2snnc2c1 | > 42 µM (inactive) |
| CCC1=Nc2cc(C(=O)NCc3ccco3)ccc2Sc2ccccc21 | > 42 µM (inactive) |
| CCCCC(O)(c1ccc(F)cc1)C(CN1CCOCC1)c1ccc(Cl)cc1 (stereo not drawn) | > 21 µM (inactive) |
| COc1ccc(NC(=O)Nc2ccc(OC)cc2)cc1 | > 42 µM (inactive) |
| COC(=O)c1cccc(NC(=O)c2ccc[n+]([O-])c2)c1 | > 42 µM (inactive) |
| CCN(C(=S)NCCOC)c1cccc2ccccc12 | > 42 µM (inactive) |
| CN(CCOc1ccc(-c2ccn(S(=O)(=O)c3cccc4ccccc34)n2)cc1)c1ccccn1 | > 42 µM (inactive) |
| O=C(N/N=C/c1cccc([N+](=O)[O-])c1)C1COc2ccccc2O1 (stereo not drawn) | > 42 µM (inactive) |
| COc1ccccc1N1CCN(CCN2C(=O)C3CCCCN3C2=O)CC1 (stereo not drawn) | > 42 µM (inactive) |
| O=C(c1ccc(Br)cc1)C(CN1CCOCC1)c1ccccc1 (stereo not drawn) | 1.86 µM |
| O=C(NCCc1cnccn1)C1CCC(=O)N(Cc2ccc(Cl)cc2)C1 (stereo not drawn) | > 42 µM (inactive) |
| CCOC(=O)N1CCN(C(=O)c2ccc(CS(=O)(=O)c3c(Cl)cccc3Cl)o2)CC1 | > 42 µM (inactive) |
| CC1=C(C)CS(=O)N(S(=O)(=O)c2ccc(Cl)cc2)C1 (stereo not drawn) | 12.1 µM |
| O=C(COc1ccc(F)cc1Cl)N(Cc1nnc(-c2ccccc2Cl)o1)C1CC1 | > 42 µM (inactive) |
| CS(=O)(=O)C1=NSC2=NC(=O)/C(=C\c3ccc(OS(=O)(=O)c4ccccc4)cc3)C(=N)N21 | > 42 µM (inactive) |
| O=C(Cc1cccs1)N1CCCC(c2nc3c(nnn3Cc3ccc(F)cc3)c(=O)[nH]2)C1 (stereo not drawn) | > 42 µM (inactive) |
| N#CC1=C(SCC(N)=O)NC(=O)CC1c1ccccc1Cl (stereo not drawn) | > 42 µM (inactive) |
| Cn1cc(C(=O)Cc2ccccc2)c2ccccc21 | > 42 µM (inactive) |
| COc1ccc2oc(=O)c(C(=O)NCc3ccco3)cc2c1 | 15.5 µM |
